Results on 6 compounds are retold here after ChEMBL document CHEMBL5465560, “Selectivity Literature for EUbOPEN Chemogenomic Library” (2024).

Assay [1] addresses T1, Receptor-interacting serine/threonine-protein kinase 1 (Homo sapiens) (UniProt Q13546).
T1 sequence (whole entry): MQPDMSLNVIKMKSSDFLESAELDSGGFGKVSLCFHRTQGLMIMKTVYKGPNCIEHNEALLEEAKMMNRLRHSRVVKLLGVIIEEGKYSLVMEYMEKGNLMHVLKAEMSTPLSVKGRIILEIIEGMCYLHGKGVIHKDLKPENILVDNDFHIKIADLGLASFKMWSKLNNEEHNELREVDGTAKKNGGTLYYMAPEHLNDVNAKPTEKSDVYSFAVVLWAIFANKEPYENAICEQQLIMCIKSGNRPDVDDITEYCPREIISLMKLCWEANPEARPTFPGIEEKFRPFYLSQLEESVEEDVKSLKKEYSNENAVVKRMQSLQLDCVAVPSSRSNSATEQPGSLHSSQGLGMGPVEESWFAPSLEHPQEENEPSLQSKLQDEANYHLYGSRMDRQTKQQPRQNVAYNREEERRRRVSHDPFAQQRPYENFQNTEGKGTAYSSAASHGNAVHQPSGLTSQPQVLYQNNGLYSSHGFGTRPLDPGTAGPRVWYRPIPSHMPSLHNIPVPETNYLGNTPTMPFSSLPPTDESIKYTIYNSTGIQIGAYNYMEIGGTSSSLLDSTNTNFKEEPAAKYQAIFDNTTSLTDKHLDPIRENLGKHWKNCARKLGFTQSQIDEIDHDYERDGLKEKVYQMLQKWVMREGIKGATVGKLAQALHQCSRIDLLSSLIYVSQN
The assay can be described thus: Selectivity interaction (KinomeScan (DiscoverX)) EUB0000655a RIPK1. To be noted: at 10 µM.

In assay [2] the target is Serine/threonine-protein kinase haspin (Homo sapiens, UniProt Q8TF76). The assay can be described thus: Selectivity interaction (Enzymatic assay) EUB0001550a GSG2.
Assay [3] addresses T2, Serine/threonine-protein kinase PLK4 (Homo sapiens) (UniProt O00444).
T2 sequence (whole entry): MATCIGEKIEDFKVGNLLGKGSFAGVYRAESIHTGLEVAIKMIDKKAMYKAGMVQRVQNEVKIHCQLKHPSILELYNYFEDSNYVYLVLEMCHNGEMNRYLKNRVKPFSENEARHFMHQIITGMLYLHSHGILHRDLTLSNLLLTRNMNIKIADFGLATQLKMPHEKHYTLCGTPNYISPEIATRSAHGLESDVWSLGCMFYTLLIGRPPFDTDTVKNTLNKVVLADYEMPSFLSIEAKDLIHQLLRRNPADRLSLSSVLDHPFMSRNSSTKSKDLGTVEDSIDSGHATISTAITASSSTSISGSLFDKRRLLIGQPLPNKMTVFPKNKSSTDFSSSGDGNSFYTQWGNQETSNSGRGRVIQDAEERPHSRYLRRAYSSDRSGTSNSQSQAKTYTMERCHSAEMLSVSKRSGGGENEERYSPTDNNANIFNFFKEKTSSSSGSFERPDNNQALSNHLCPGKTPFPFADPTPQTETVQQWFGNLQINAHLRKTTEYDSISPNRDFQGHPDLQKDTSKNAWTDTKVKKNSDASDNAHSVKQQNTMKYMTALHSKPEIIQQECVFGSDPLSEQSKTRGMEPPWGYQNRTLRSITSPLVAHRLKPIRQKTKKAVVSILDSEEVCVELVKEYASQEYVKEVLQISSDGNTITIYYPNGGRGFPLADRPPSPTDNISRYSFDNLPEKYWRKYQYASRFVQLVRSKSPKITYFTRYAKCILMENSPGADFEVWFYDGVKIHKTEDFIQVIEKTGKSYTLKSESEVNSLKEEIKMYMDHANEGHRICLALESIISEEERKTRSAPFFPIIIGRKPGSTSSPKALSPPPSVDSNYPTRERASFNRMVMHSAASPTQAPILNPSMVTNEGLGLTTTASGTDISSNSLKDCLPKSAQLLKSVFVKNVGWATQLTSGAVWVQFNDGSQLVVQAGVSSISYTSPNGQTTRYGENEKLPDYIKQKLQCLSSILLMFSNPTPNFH
The assay can be described thus: Selectivity interaction (KinomeScan (DiscoverX)) EUB0000695a PLK4. Particulars: at 100 nM.

Assay [4] concerns the target Ribosomal protein S6 kinase alpha-3 (Homo sapiens, UniProt P51812). The assay can be described thus: Selectivity interaction (KinomeScan (DiscoverX)) EUB0000045b RPS6KA3.
The target of assay [5] is T3, Serine/threonine-protein kinase greatwall (Homo sapiens) (UniProt Q96GX5).
T3 sequence (whole entry): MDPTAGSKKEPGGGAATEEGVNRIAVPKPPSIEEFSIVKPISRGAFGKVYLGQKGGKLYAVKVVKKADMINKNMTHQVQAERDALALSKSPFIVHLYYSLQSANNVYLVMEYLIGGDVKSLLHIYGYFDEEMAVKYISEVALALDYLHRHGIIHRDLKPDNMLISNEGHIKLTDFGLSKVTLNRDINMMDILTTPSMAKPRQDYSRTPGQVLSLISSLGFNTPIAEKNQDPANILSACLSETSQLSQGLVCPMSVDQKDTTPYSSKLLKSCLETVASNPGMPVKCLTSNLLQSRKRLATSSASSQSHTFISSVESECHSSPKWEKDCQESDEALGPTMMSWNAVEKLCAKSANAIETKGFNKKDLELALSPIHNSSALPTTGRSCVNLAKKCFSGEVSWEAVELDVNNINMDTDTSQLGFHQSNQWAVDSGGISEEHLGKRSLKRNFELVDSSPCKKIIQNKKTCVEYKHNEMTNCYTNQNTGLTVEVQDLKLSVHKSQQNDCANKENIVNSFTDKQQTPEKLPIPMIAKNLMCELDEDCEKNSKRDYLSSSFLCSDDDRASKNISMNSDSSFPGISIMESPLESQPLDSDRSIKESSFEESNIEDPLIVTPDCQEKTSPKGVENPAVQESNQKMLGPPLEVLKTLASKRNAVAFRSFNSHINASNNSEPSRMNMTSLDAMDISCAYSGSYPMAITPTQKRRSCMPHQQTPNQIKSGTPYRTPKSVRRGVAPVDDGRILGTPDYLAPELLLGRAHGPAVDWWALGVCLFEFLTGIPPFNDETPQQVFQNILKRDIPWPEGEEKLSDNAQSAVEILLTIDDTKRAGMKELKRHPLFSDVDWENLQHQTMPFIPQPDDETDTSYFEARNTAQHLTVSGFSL
The assay can be described thus: Selectivity interaction (ActivX KiNativ screen (kinase selectivity in THP-1 cell lysates)) EUB0000639a MASTL. The assay is classed as subcellular. Particulars: lysate, at 5 µM.

The target of assay [6] is Ribosomal protein S6 kinase alpha-6 (Homo sapiens, UniProt Q9UK32). The assay can be described thus: Selectivity interaction (KinomeScan (DiscoverX)) EUB0000618a RPS6KA6. Particulars: at 10 µM.
Ribosomal protein S6 kinase alpha-6, sequence (Q9UK32 whole entry): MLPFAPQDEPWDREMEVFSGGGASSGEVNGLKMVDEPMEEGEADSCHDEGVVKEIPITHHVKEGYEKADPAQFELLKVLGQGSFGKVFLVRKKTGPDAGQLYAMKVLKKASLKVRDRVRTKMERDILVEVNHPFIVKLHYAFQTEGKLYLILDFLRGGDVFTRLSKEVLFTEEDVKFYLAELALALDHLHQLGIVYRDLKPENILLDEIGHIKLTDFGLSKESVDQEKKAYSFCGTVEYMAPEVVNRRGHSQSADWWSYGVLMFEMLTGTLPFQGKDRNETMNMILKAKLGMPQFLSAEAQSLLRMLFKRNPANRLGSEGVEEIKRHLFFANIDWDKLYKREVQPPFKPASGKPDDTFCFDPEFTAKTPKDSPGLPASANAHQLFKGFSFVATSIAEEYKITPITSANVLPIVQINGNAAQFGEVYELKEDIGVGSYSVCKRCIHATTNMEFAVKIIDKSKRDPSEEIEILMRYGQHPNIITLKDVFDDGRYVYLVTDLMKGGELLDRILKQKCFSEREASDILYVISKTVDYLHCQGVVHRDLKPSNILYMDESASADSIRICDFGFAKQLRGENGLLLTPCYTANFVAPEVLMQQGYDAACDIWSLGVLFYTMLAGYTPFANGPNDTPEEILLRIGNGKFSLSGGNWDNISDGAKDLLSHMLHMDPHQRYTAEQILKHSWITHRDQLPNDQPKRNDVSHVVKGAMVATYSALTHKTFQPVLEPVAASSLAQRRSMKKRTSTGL

Ribosomal protein S6 kinase alpha-3, sequence (P51812 whole entry): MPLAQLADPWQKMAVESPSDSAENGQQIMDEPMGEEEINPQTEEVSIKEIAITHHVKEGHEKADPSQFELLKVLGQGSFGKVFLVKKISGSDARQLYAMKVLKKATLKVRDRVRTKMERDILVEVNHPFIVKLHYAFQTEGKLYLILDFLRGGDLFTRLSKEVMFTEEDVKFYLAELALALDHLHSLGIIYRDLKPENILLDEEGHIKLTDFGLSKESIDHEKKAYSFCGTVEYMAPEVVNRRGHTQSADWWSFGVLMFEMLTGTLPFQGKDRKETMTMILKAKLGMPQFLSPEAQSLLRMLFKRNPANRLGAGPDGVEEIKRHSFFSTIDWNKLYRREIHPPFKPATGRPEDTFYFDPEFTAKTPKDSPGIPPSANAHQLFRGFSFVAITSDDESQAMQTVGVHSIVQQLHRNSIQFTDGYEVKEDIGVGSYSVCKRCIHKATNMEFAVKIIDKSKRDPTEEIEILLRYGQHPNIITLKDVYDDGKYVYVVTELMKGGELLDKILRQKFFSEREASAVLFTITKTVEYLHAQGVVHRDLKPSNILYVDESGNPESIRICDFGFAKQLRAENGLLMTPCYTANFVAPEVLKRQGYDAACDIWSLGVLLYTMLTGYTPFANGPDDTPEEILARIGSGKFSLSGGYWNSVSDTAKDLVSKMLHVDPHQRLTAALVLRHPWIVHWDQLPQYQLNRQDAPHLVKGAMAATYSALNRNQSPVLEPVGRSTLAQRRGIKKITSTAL
Serine/threonine-protein kinase haspin, sequence (Q8TF76 whole entry): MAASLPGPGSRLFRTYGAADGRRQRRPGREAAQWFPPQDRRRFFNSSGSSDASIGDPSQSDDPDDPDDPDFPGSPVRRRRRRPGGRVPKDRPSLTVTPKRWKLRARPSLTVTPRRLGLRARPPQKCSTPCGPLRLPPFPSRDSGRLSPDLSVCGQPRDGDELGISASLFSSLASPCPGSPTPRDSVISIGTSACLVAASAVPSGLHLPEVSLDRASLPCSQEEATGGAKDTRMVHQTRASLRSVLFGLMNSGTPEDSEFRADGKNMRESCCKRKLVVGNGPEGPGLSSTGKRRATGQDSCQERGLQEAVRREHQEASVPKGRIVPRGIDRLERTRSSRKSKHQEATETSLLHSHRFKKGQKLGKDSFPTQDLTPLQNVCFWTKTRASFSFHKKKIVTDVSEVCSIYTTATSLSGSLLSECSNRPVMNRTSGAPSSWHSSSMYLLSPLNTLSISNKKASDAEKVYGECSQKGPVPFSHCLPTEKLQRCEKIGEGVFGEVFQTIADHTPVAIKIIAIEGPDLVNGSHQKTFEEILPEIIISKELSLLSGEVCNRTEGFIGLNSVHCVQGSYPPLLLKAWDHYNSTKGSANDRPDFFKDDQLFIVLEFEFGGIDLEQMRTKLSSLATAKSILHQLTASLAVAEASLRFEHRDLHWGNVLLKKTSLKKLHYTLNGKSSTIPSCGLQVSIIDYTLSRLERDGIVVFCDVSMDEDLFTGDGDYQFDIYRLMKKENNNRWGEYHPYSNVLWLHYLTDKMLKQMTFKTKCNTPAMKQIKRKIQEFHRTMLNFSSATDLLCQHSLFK

Regarding `CN(C)CCOc1ccc(-c2nc(-c3ccncc3)c(-c3ccc4c(c3)CC/C4=N\O)[nH]2)cc1`, the % of control in assay [1] is 72%.

On to `CN(C)CC#Cc1ccc2[nH]c3c(c2c1)-c1nc(N)ncc1CCC3`, for which the IC50 in assay [2] was determined as 1400 nM.

Compound `Cc1cc(F)c(C(=O)Nc2cccc(-c3nncn3C(C)C)n2)cc1-n1cnc(C2CC2)c1` gave a % of control in assay [3] of 100%.

As to `C=CC(=O)Nc1cc(-n2c(=O)ccc3cnc4ccc(-c5ccc(NS(C)(=O)=O)cc5)cc4c32)ccc1C`, the % of control came to 81% in assay [4] (at 1 µM) and 100% in assay [4] (at 10 µM).

Turning to `CC[C@@H]1[C@H](F)C(=O)N[C@@H]1COc1nccc2cc(C(N)=O)c(OC)cc12` [ZIMLOVISERTIB], the % of inhibition in assay [5] came to 77.2%.

`O[C@H]1CC[C@H](Nc2ncc3nc(Nc4c(F)cc(F)cc4F)n([C@H]4CCOC4)c3n2)CC1` came in with a % of control in assay [6] of 49%.

The IC50 is the concentration that inhibits the measured activity by half. Read a high IC50 as weaker potency in that assay.
